According to patent US11524950B2, “Treatment of immune-related and inflammatory diseases” (Celgene Corporation, priority 2012, dated 2022):
Read-outs that look alike come from different tables or passages of the source.

Experiments:
[1] = test system: IL-8; test: LPS-stimulated hPBMC cytokine production: IL-8; format: cell-based; details: Homo sapiens; LPS 1 ng/ml, 18 hours
Description: (§1) 50 ml human buffy coat was aliquoted 25 ml each into two 50 ml conical tubes and 25 ml sterile HBSS was added to each conical tube. The tubes were gently mixed by inverting. Fifteen ml of room temperature Ficoll-Paque Plus (GE Healthcare (location); cat #17-1440-02) was aliquoted into four 50 ml conical tubes. Then 25 ml of the Buffy coat/HBSS mixture was layered gently and slowly on top of the Ficoll. The samples were centrifuged at 450 rpm for 35 minutes. The top layered containing plasma was pipetted off and discarded. The interface containing mononuclear cells was transferred into two 50 ml conical tubes. Both conical tubes were filled to total volume of 50 ml with HBSS and centrifuged at 1200 rpm for 10 minutes. The cells were washed again in HBSS and spun at 1000 rpm for 10 minutes. Cell pellet was resuspended with 20 ml RPMI complete medium (RPMI/5% human sera/1× pen/strep/glut) and counted.
(§2) One hundred μl (2×10^6/ml) of hPBMCs were added to each well of a 96 well flat-bottom plate (final cell count=2×10^5/well) and incubated at 37° C. for 1 hour. […] compound was added to each test well and twenty μl medium containing 2.5% DMSO was added to each control well ([DMSO]final=0.25%) and plate was incubated for 1 hour at 37° C. Cells were then stimulated with […] 2.5 ng/ml LPS ([LPS]final=1 ng/ml) and incubated for 18 hours at 37° C.
(§3) 50 μl supernatant from each well was transferred into 3 new round-bottomed 96 well plates and stored at −20° C. for Luminex analysis. Duplicate wells were performed for each sample.
(§4) Supernatant samples were analyzed for cytokines in multiplex format according to the manufacturer's instructions (Millipore, Billerica, Ma 01821) using a Luminex IS100 instrument. IL-12 and GM-CSF analyses were done in a two-plex format using neat supernatants while all other cytokines were done in a multiplex format using supernatants diluted 1:20. Data analysis was performed using Upstate Beadview software. […] The IC50 were performed using GraphPad Prism v5.00. […]

[2] = test system: MIP-1α; test: LPS-stimulated hPBMC cytokine production: MIP-1α; format: cell-based; details: Homo sapiens
Description: as §1, §2, §3, §4

[3] = test system: TNF-α; test: LPS-stimulated hPBMC cytokine production: TNF-α; format: cell-based; details: Homo sapiens; LPS 1 ng/ml, 18 hours
Description: as §1, §2, §3, §4

[4] = test system: MCP-1; test: LPS-stimulated hPBMC cytokine production: MCP-1 enhancement; format: cell-based, human; details: at 0.1 μM
Description: as §1, §2, §3, §4

[5] = test system: Human umbilical vascular endothelial cells; test: Human umbilical vascular endothelial cells proliferation assay; format: cell-based; details: for IC50: Homo sapiens, Endothelial cell
Description: Human Umbilical Vascular Endothelial Cells Proliferation Assay: Human umbilical vascular endothelial cells were thawed and grown in EGM2 medium until passage 3 to 6 for all proliferation assays. Human umbilical vascular endothelial cells were trypsinized, washed with 20% FBS/M199 medium and plated with the same medium at 10^4 cells/100 μL per well to 96-well cell culture plates. The plates were incubated overnight at 37° C. to allow cells to adhere. The cells were then starved in 1% FBS/M199 medium for 18 hours after washing with the same medium 3 times. For optimization of the concentration of the growth factors in the HUVEC proliferation assay, 100 μL/well of the 2× serial diluted growth factors, starting at 100 ng/mL, were added to HUVECs in duplicate for 72 hours at 37° C. in a humidified cell culture incubator with 5% CO2. For analysis of test compounds, a serial dilution of the test compounds in 0.4% DMSO/1% FBS/M199 medium in duplicate was made from the 10 mM stock. Fifty microliters per well of the serially diluted test compounds (10, 1.0, 0.1, 0.01, 0.001, 0.0001, 0.00001 μM) were added to the cells for 1 to 2 hours at 37° C. The final DMSO concentration in the cells is 0.1%. Then 50 μL of 4× final concentration of relative growth factors was added to each well in duplicate for 72 hours at 37° C. in a humidified cell culture incubator with 5% CO2. Thymidine incorporation was measured by adding one microcurie of 3H-thymidine (Amersham) in 20 μL medium to each well and incubated at 37° C. in a humidified cell culture incubator with 5% CO2 for 5 to 6 hours. The cells were then trypsinized and harvested onto UniFilter GF/C filter plates (Perkin Elmer) by using the cell harvester (Tomtec). After the plates were air dried, 20 µL/well of Microscint 20 (Packard) was added then the plates were analyzed in TopCount NXT (Packard). Each well was counted for one minute. The experiments were performed in duplicate in each of 3 donors.
(§5) The percentage inhibition of cell proliferation, tube formation, migration, and invasion was calculated by subtracting the result for unstimulated DMSO control from test sample results, averaging all replicates, and normalizing to the growth factor-stimulated DMSO control (0% inhibition). The IC50 values were calculated by using GraphPad Prism 5.0.

[6] = test system: Human umbilical vascular endothelial cells; test: Human umbilical vascular endothelial cell invasion assay; format: cell-based; details: for IC50: Homo sapiens; for VEGF-, bFGF-, and HGF-induced HUVEC invasion: dose-dependent
Description: Human Umbilical Vascular Endothelial Cell Invasion Assay: In the HUVEC invasion assay, the concentration of human fibronectin is optimized to provide a suitable protein structure for adherent cells to attach to the membrane and allow free migration in response to an angiogenic stimulus (e.g. VEGF, bFGF, or HGF) in the lower chamber of the insertplate. HUVECs were starved in 0.1% BSA EBM2 medium for 6 hours after washing with the same medium 3 times. The cells were then trypsinized and centrifuged to remove the remaining trypsin. Then ˜0.5 to 1×10^6 cells in 125 μL/well and 125 μL of […] serially diluted compounds (10, 1, 0.1, 0.01, 0.001 μM) were added to the upper chamber of the BD Falcon 24-well and 96-well insert plates in duplicate and incubated for […]. (The plates contain a fluorescence blocking, microporous [3.0 μm pore size] PET membrane that has been evenly coated with human fibronectin.) Seven hundred fifty microliters of a 1.33×stock solution of VEGF (final concentration of 25 ng/mL), bFGF (final concentration of 10 ng/mL), or HGF (final concentration of 25 ng/mL) were then added to the lower chamber. The cells were incubated for 22±1 hours at 37° C. The migrated cells were stained with calcein AM at […] in HBSS containing 2% FBS, using 500 μL/well in 24-well plates and 200 μL/well in 96-well plates. The plates were incubated at 37° C. for 90 minutes and read in a fluorescence plate reader.
as §5

[7] = LPS 1 ng/ml, 18 hours, read-out: MIP-1α IC50
[8] = read-out: bFGF (10 ng/mL) IC50 Values (μM), bFGF-induced proliferation
[9] = HGF-induced proliferation, read-out: HGF (25 ng/mL) IC50 Values
[10] = VEGF-induced proliferation, read-out: VEGF (25 ng/mL) IC50 Values
[11] = Endothelial cell, HGF 25 ng/mL, read-out: HGF-induced invasion IC50 Values
[12] = Endothelial cell, VEGF 25 ng/mL, read-out: VEGF-induced invasion IC50 Values
[13] = Endothelial cell, bFGF 10 ng/mL, read-out: bFGF-induced invasion IC50 Values
[14] = HUVEC, growth factor not given, read-out: IC50 (HUVEC invasion)

Structure (SMILES) | IC50 [1] [nM] | IC50 [2, 7] [µM] | IC50 [3] [nM] | MCP-1 Mean % of Control [4] | VEGF-, bFGF-, or HGF-induced HUVEC proliferation [5] | IC50 [5, 8] [µM] | IC50 [5, 9] [µM] | IC50 [5, 10] [µM] | IC50 [6, 11] [nM] | IC50 [6, 12] [nM] | IC50 [6, 13] [nM] | IC50 [6, 14] [nM] | VEGF-, bFGF-, and HGF-induced HUVEC invasion [6] | IC50 ([2]; 18 h, read-out: MIP-1α IC50 (μM)) [µM] | concentrations with significant enhancement of proliferation ([5]; bFGF-treated HUVECs) [µM] | concentrations with significant enhancement of proliferation ([5]; VEGF-treated HUVECs) [µM]
O=C1CC[C@@H](N2Cc3c(OCc4ccc(CN5CCOCC5)cc4)cccc3C2=O)C(=O)N1 [R-enantiomer, (R)-3-[4-(4-morphlin-4-ylmethylbenzyloxy)-1-oxo-1,3-dihydro-isoindo-2-yl]piperidine-2,6-dione] | > 10000 | 0.45 | 9.5 | 223 % of control | did not inhibit | 76 | 38 | > 100 | 450 | < 0.1 | 13 | 13 | significantly inhibited | – | – | –
O=C1CCC(N2Cc3c(OCc4ccc(CN5CCOCC5)cc4)cccc3C2=O)C(=O)N1 (racemic) [Racemate, 3-[4-(4-morphlin-4-ylmethylbenzyloxy)-1-oxo-1,3-dihydro-isoindo-2-yl]piperidine-2,6-dione] | > 10000 | – | 1.8 | 208 % of control | did not inhibit | 99 | 24 | > 100 | 590 | 0.14 | 0.42 | 0.4 | significantly inhibited | 0.19 | 0.01 to 1 | –
O=C1CC[C@H](N2Cc3c(OCc4ccc(CN5CCOCC5)cc4)cccc3C2=O)C(=O)N1 [Test compound, (S)-3-[4-(4-morphlin-4-ylmethylbenzyloxy)-1-oxo-1,3-dihydro-isoindo-2-yl]piperidine-2,6-dione] | > 10000 | 0.028 | 0.59 | 233 % of control | did not inhibit | 52 | 51 | > 100 | 19 | < 0.1 | < 0.1 | < 0.1 | significantly inhibited | – | – | 1 to 10
